# In ChEMBL document CHEMBL5729561, “Compounds and uses thereof” (2023):
# Assay: On day 0 cells were seeded in 30 μL media into each well of 384-well cell culture plates. The seeding density was 8000 cells/well. On day 1, cells were treated with 30 nL DMSO or 30 nL of 3-fold serially DMSO-diluted compounds (10 points in duplicates with 1 μM as final top dose). Subsequently plates were incubated for 6 hours in a standard tissue culture incubator and equilibrated at room temperature for 15 minutes. Nanoluciferase activity was measured by adding 15 μL of freshly prepared Nano-Glo Luciferase Assay Reagent (Promega N1130), shaking the plates for 10 minutes and reading the bioluminescence using an EnVision reader.
# Format: cell-based
row,SMILES,IC50
1,COc1cc(-c2cn(C)c(=O)c3cnccc23)cc(OC)c1CN1CCC2(CC1)CN(C(=O)CCOCCOc1cccc3c1C(=O)N(C1CCC(=O)NC1=O)C3=O)C2 (configuration not stated),in the range around 55 nM
2,COc1cc(-c2cn(C)c(=O)c3cnccc23)cc(OC)c1ON1CC2(CC(NC(=O)CCOCCOc3ccc4c(c3)C(=O)N(C3CCC(=O)NC3=O)C4=O)C2)C1 (configuration not stated),in the range around 550 nM
3,COc1cc(-c2cn(C)c(=O)c3cnccc23)cc(OC)c1CN1CCC2(C[C@@H]2NC(=O)CCOCCOc2cccc3c2C(=O)N(C2CCC(=O)NC2=O)C3=O)C1 (some centres not stated),in the range around 550 nM
4,COc1cc(-c2cn(C)c(=O)c3cnccc23)cc(OC)c1CN(C)CCc1cn(CCOCCOc2ccc3c(c2)C(=O)N(C2CCC(=O)NC2=O)C3=O)nn1 (configuration not stated),in the range around 55 nM
5,COc1cc(-c2cn(C)c(=O)c3cnccc23)cc(OC)c1CN1CCC(OC2CCN(C(=O)CCOCCOc3ccc4c(c3)C(=O)N(C3CCC(=O)NC3=O)C4=O)CC2)CC1 (configuration not stated),< 10 nM
6,COc1cc(-c2cn(C)c(=O)c3cnccc23)cc(OC)c1CN1CC2(CCC2NC(=O)CCOCCOc2cccc3c2C(=O)N(C2CCC(=O)NC2=O)C3=O)C1 (configuration not stated),> 1000 nM
7,COc1cc(-c2cn(C)c(=O)c3cnccc23)cc(OC)c1CN(C)CCc1cn(CCCCCOc2ccc3c(c2)C(=O)N(C2CCC(=O)NC2=O)C3=O)nn1 (configuration not stated),< 10 nM
8,COc1cc(-c2cn(C)c(=O)c3cnccc23)cc(OC)c1CN1CCC2(C[C@H]2NC(=O)CCOCCOc2cccc3c2C(=O)N(C2CCC(=O)NC2=O)C3=O)C1 (some centres not stated),in the range around 55 nM
9,COc1cc(-c2cn(C)c(=O)c3cnccc23)cc(OC)c1CN1CCC2CCN(C(=O)CCOCCOc3ccc4c(c3)C(=O)N(C3CCC(=O)NC3=O)C4=O)CC21 (configuration not stated),< 10 nM
10,COc1cc(-c2cn(C)c(=O)c3cnccc23)cc(OC)c1CN(C)CCc1cn(CCCCOc2ccc3c(c2)C(=O)N(C2CCC(=O)NC2=O)C3=O)nn1 (configuration not stated),in the range around 55 nM
11,COc1cc(-c2cn(C)c(=O)c3cnccc23)cc(OC)c1CN1CCC2(CCN(C(=O)CCOCCOc3ccc4c(c3)C(=O)N(C3CCC(=O)NC3=O)C4=O)CC2)C1 (configuration not stated),in the range around 55 nM
12,COc1cc(-c2cn(C)c(=O)c3cnccc23)cc(OC)c1CN1CCC2CCN(C(=O)CCOCCOc3cccc4c3C(=O)N(C3CCC(=O)NC3=O)C4=O)CC21 (configuration not stated),in the range around 55 nM
13,COc1cc(-c2cn(C)c(=O)c3cnccc23)cc(OC)c1CN(C)Cc1cn(CCOCCOc2ccc3c(c2)C(=O)N(C2CCC(=O)NC2=O)C3=O)nn1 (configuration not stated),in the range around 550 nM
14,COc1cc(-c2cn(C)c(=O)c3cnccc23)cc(OC)c1CN1CCC(C2CCN(C(=O)CCOCCOc3cccc4c3C(=O)N(C3CCC(=O)NC3=O)C4=O)C2)CC1 (configuration not stated),in the range around 55 nM
15,COc1cc(-c2cn(C)c(=O)c3cnccc23)cc(OC)c1CN1CCC12CN(C(=O)CCOCCOc1ccc3c(c1)C(=O)N(C1CCC(=O)NC1=O)C3=O)C2 (configuration not stated),in the range around 550 nM
16,COc1cc(-c2cn(C)c(=O)c3cnccc23)cc(OC)c1CN1CCC2(C[C@@H]2NC(=O)CCOCCOc2ccc3c(c2)C(=O)N(C2CCC(=O)NC2=O)C3=O)C1 (some centres not stated),in the range around 55 nM
17,COc1cc(-c2cn(C)c(=O)c3cnccc23)cc(OC)c1CN1CC2CN(C(=O)CCOCCOc3ccc4c(c3)C(=O)N(C3CCC(=O)NC3=O)C4=O)CCC21 (configuration not stated),< 10 nM
18,COc1cc(-c2cn(C)c(=O)c3cnccc23)cc(OC)c1CN1CCC12CCN(C(=O)CCOCCOc1cccc3c1C(=O)N(C1CCC(=O)NC1=O)C3=O)C2 (configuration not stated),in the range around 550 nM
19,COc1cc(-c2cn(C)c(=O)c3cnccc23)cc(OC)c1CN1CCC(OC2CCN(C(=O)CCOCCOc3ccc4c(c3)C(=O)N(C3CCC(=O)NC3=O)C4=O)C2)CC1 (configuration not stated),< 10 nM
20,COc1cc(-c2cn(C)c(=O)c3cnccc23)cc(OC)c1CN1CC(OCc2cn(CCCCCOc3ccc4c(c3)C(=O)N(C3CCC(=O)NC3=O)C4=O)nn2)C1 (configuration not stated),in the range around 55 nM
21,COc1cc(-c2cn(C)c(=O)c3cnccc23)cc(OC)c1CN1CCC(C2CCN(C(=O)CCOCCOc3ccc4c(c3)C(=O)N(C3CCC(=O)NC3=O)C4=O)C2)CC1 (configuration not stated),< 10 nM
22,COc1cc(-c2cn(C)c(=O)c3cnccc23)cc(OC)c1CN(C)Cc1cn(CCOc2ccc3c(c2)C(=O)N(C2CCC(=O)NC2=O)C3=O)nn1 (configuration not stated),in the range around 550 nM
23,COc1cc(-c2cn(C)c(=O)c3cnccc23)cc(OC)c1CN1CCC(OC2CCN(C(=O)CCOCCOc3cccc4c3C(=O)N(C3CCC(=O)NC3=O)C4=O)C2)CC1 (configuration not stated),in the range around 55 nM
24,COc1cc(-c2cn(C)c(=O)c3cnccc23)cc(OC)c1CN1CC2(CCN(C(=O)CCOCCOc3cccc4c3C(=O)N(C3CCC(=O)NC3=O)C4=O)CC2)C1 (configuration not stated),in the range around 550 nM
25,COc1cc(-c2cn(C)c(=O)c3cnccc23)cc(OC)c1CN1CCC2(CCN(C(=O)CCOCCOc3cccc4c3C(=O)N(C3CCC(=O)NC3=O)C4=O)C2)C1 (configuration not stated),< 10 nM
26,COc1cc(-c2cn(C)c(=O)c3cnccc23)cc(OC)c1CN1CCC(COC2CCN(C(=O)CCOCCOc3cccc4c3C(=O)N(C3CCC(=O)NC3=O)C4=O)C2)CC1 (configuration not stated),in the range around 55 nM

row,SMILES,IC50
1,COc1cc(-c2cn(C)c(=O)c3cnccc23)cc(OC)c1CN1CC2(CC(NC(=O)CCOCCOc3cccc4c3C(=O)N(C3CCC(=O)NC3=O)C4=O)C2)C1 (configuration not stated),in the range around 55 nM
2,COc1cc(-c2cn(C)c(=O)c3cnccc23)cc(OC)c1CN(C)Cc1cn(CCCCOc2ccc3c(c2)C(=O)N(C2CCC(=O)NC2=O)C3=O)nn1 (configuration not stated),in the range around 55 nM
3,COc1cc(-c2cn(C)c(=O)c3cnccc23)cc(OC)c1CN1CCC12CCN(C(=O)CCOCCOc1ccc3c(c1)C(=O)N(C1CCC(=O)NC1=O)C3=O)C2 (configuration not stated),in the range around 550 nM
4,COc1cc(-c2cn(C)c(=O)c3cnccc23)cc(OC)c1CN1CC2(CCC2NC(=O)CCOCCOc2ccc3c(c2)C(=O)N(C2CCC(=O)NC2=O)C3=O)C1 (configuration not stated),in the range around 550 nM
5,COc1cc(-c2cn(C)c(=O)c3cnccc23)cc(OC)c1CN1CCC2(C1)CN(C(=O)CCOCCOc1ccc3c(c1)C(=O)N(C1CCC(=O)NC1=O)C3=O)C2 (configuration not stated),in the range around 55 nM
6,COc1cc(-c2cn(C)c(=O)c3cnccc23)cc(OC)c1CN1CC2(CCN(C(=O)CCOCCOc3ccc4c(c3)C(=O)N(C3CCC(=O)NC3=O)C4=O)C2)C1 (configuration not stated),< 10 nM
7,COc1cc(-c2cn(C)c(=O)c3cnccc23)cc(OC)c1CN1CC(OCc2cn(CCCCOc3ccc4c(c3)C(=O)N(C3CCC(=O)NC3=O)C4=O)nn2)C1 (configuration not stated),in the range around 55 nM
8,COc1cc(-c2cn(C)c(=O)c3cnccc23)cc(OC)c1CN1CC(CCNC(=O)CCOCCOc2ccc3c(c2)C(=O)N(C2CCC(=O)NC2=O)C3=O)C1 (configuration not stated),in the range around 550 nM
9,COc1cc(-c2cn(C)c(=O)c3cnccc23)cc(OC)c1CN(C)Cc1cn(CCCOc2ccc3c(c2)C(=O)N(C2CCC(=O)NC2=O)C3=O)nn1 (configuration not stated),in the range around 550 nM
10,COc1cc(-c2cn(C)c(=O)c3cnccc23)cc(OC)c1ON1CCC2(CCN(C(=O)CCOCCOc3cccc4c3C(=O)N(C3CCC(=O)NC3=O)C4=O)CC2)C1 (configuration not stated),< 10 nM
11,COc1cc(-c2cn(C)c(=O)c3cnccc23)cc(OC)c1CN1CCC2(C1)CN(C(=O)CCOCCOc1cccc3c1C(=O)N(C1CCC(=O)NC1=O)C3=O)C2 (configuration not stated),in the range around 55 nM
12,COc1cc(-c2cn(C)c(=O)c3cnccc23)cc(OC)c1CN1CCC12CN(C(=O)CCOCCOc1cccc3c1C(=O)N(C1CCC(=O)NC1=O)C3=O)C2 (configuration not stated),in the range around 550 nM
13,COc1cc(-c2cn(C)c(=O)c3cnccc23)cc(OC)c1CN(C)Cc1cn(CCCCCOc2ccc3c(c2)C(=O)N(C2CCC(=O)NC2=O)C3=O)nn1 (configuration not stated),in the range around 55 nM
14,COc1cc(-c2cn(C)c(=O)c3cnccc23)cc(OC)c1CN1CCC(COC2CCN(C(=O)CCOCCOc3ccc4c(c3)C(=O)N(C3CCC(=O)NC3=O)C4=O)C2)CC1 (configuration not stated),< 10 nM
15,COc1cc(-c2cn(C)c(=O)c3cnccc23)cc(OC)c1CN1CCC2(CCN(C(=O)CCOCCOc3ccc4c(c3)C(=O)N(C3CCC(=O)NC3=O)C4=O)C2)C1 (configuration not stated),in the range around 55 nM
16,COc1cc(-c2cn(C)c(=O)c3cnccc23)cc(OC)c1CN(C)C1CCC12CCN(C(=O)CCOCCOc1cccc3c1C(=O)N(C1CCC(=O)NC1=O)C3=O)CC2 (configuration not stated),in the range around 55 nM
17,COc1cc(-c2cn(C)c(=O)c3cnccc23)cc(OC)c1CN1CC2C1CCN2C(=O)CCOCCOc1cccc2c1C(=O)N(C1CCC(=O)NC1=O)C2=O (configuration not stated),< 10 nM
18,COc1cc(-c2cn(C)c(=O)c3cnccc23)cc(OC)c1CN(C)CCc1cn(CCCOc2ccc3c(c2)C(=O)N(C2CCC(=O)NC2=O)C3O)nn1 (configuration not stated),in the range around 550 nM
19,COc1cc(-c2cn(C)c(=O)c3cnccc23)cc(OC)c1CN1CCC2(CC1)CN(C(=O)CCOCCOc1ccc3c(c1)C(=O)N(C1CCC(=O)NC1=O)C3=O)C2 (configuration not stated),in the range around 55 nM
20,COc1cc(-c2cn(C)c(=O)c3cnccc23)cc(OC)c1CN1CCC2(C[C@H]2NC(=O)CCOCCOc2ccc3c(c2)C(=O)N(C2CCC(=O)NC2=O)C3=O)C1 (some centres not stated),in the range around 550 nM
21,COc1cc(-c2cn(C)c(=O)c3cnccc23)cc(OC)c1CN1CCC2(CC1)CC(NC(=O)CCOCCOc1ccc3c(c1)C(=O)N(C1CCC(=O)NC1=O)C3=O)C2 (configuration not stated),in the range around 55 nM
22,COc1cc(-c2cn(C)c(=O)c3cnccc23)cc(OC)c1CN1CC(OCc2cn(CCCOc3ccc4c(c3)C(=O)N(C3CCC(=O)NC3=O)C4=O)nn2)C1 (configuration not stated),in the range around 550 nM
23,COc1cc(-c2cn(C)c(=O)c3cnccc23)cc(OC)c1CN1CC2C1CCN2C(=O)CCOCCOc1ccc2c(c1)C(=O)N(C1CCC(=O)NC1=O)C2=O (configuration not stated),< 10 nM
24,COc1cc(-c2cn(C)c(=O)c3cnccc23)cc(OC)c1CN1CC2(CCN(C(=O)CCOCCOc3ccc4c(c3)C(=O)N(C3CCC(=O)NC3=O)C4=O)CC2)C1 (configuration not stated),in the range around 55 nM
25,COc1cc(-c2cn(C)c(=O)c3cnccc23)cc(OC)c1CN(C)CCc1cn(CCOc2ccc3c(c2)C(=O)N(C2CCC(=O)NC2=O)C3=O)nn1 (configuration not stated),in the range around 55 nM
26,COc1cc(-c2cn(C)c(=O)c3cnccc23)cc(OC)c1CN(C)CC1CC2(CCN(C(=O)CCOCCOc3cccc4c3C(=O)N(C3CCC(=O)NC3=O)C4=O)CC2)CO1 (configuration not stated),in the range around 55 nM
